Experimental findings from US8569448B2, “NMDAR biomarkers for diagnosis and treatment of traumatic brain injury and other disorders” (Grace Laboratories, LLC, priority 2006, dated 2013) are described below.

Experiment [1] relates to isolated giant neurons of mollusk Planorbarius Corneus. Description: physiological functions in isolated giant neurons of mollusk. The format is cell-based. From the text: Several double derivatives of glutamic acid {E-(CH2)n-E} or containing amino acids (glycine, lysine, histidine, and/or arginine, {E-amino acid-E}) including chelates (Fe2+, Mg2+, or Zn2+) were synthesized and used to study their physiological functions in isolated giant neurons of mollusk Planorbarius Corneus. […] The effect of these substances depended on the length of the amino acid chain (CH2)n between the residues of glutamic acid.
The Hill coefficient (nH) is a central parameter in the study of ligand-protein interactions, which measures the degree of co-operativity between subunits that bind the ligand in multi-subunit proteins. The most common usage of nH is as an estimate of the minimal number of interacting binding sites in positively co-operating systems. The Hill coefficient for tested compounds was about 0.75.

The test system of experiment [2] is patients who had suffered an acute ischemic stroke. As to conditions: sublingual 2.0 g/day, five consecutive days, acute ischemic stroke within six hours.

Turning to `N[C@@H](CCC(=O)O)C(=O)O` [glutamate], the “neuronal response evoked by application” value in experiment [1] (isolated giant neurons, application/injection of substance) was “biphasic responses”.
Consider `NCC(=O)O` [glycine], for which the “decrease of 30 day mortality compared to placebo” value in experiment [2] stood at 20%.
With “glutamic acid-lysine Zn2+-arginin-glutamic acid”, the “effect on neurons depending on chain length between glutamic acid residues” value in experiment [1] (comparison among double derivatives) was “maximal effect”.
